What was measured:
B16 melanoma cells = test: B16 melanoma cell growth in culture (MTT assay); format: cell-based, mouse; details: 6 days; FIG. 13C
Protocol: Data represent mean±SD of triplicate samples. […] Tumor volumes were recorded as indicated. C, Athymic nude mice bearing 4-day-established B16 tumors were subjected to differential treatments as in B. Tumor volumes were recorded as indicated.
L5, L6 and L6 analogs (Chembridge), mouse IFNγ ELISPOT Kit (R & D System) and antibody against pLck-pY394 or pERK1/2 (Cell Signaling) were purchased from commercial sources. Human Jurkat T cell line and murine B16 melanoma cell line (ATCC) and other cancer cell lines were maintained in […] culture medium supplemented with 10% fetal calf serum (FCS). The effects of chemical compounds on cancer cell growth in culture were quantified by MTT assays following our established procedures.

[1] = tested on: CD3+ and CD3- IFNγ+ splenocytes; test: spleno-IFNγ+ cells in B16 tumor mice (CD3/intracellular IFNγ FACS); format: in vivo, mouse; details: 1 mg/kg oral, day 22
Protocol: Splenocytes from mice untreated or treated with L5a2 were stained with appropriate isotype control antibodies or FICT-labeled anti-CD3 monoclonal antibody (BD) plus PE-labeled monoclonal antibody (BD) for intracellular IFNγ following established procedures. The stained samples were washed 3 times, re-suspended in 200 μl of 1% para-formaldehyde solution and analyzed (20,000 cells/sample) using a BD FACS Caliburs cytometer and FlowJoe software.
To gain further insights into the mechanism of action in L5a2 in vivo, spleens were harvested from the B16 tumor mice in the control and the L5a2-treated groups (FIG. 13A) on day 22 to assess whether L5a2 induced IFNγ+ cells in the tumor-bearing mice. It was also determined whether the induced-IFNγ+ cells were of CD3+ T lymphocytes, which were activated TH1 critical for anti-tumor immunity. Splenocytes were prepared and co-stained for intracellular IFNγ and the T cell surface marker CD3 for quantification of IFNγ+ T cells by flow cytometry.

mouse splenocytes = test: induction of IFNγ+ cells in mouse splenocytes in vitro (ELISPOT); format: cell-based; details: 1 μg/ml; FIG. 11
Protocol: The splenocytes were cultured in RPMI 1640 medium supplemented with 10% FCS in the absence or presence of designated agents for 16 hrs in flat-bottom 96-well plates coated with a monoclonal antibody specific for mouse IFNγ (mouse IFNγ ELISPOT Kit, R & D System). The plates were then processed for in situ detection of IFNγ+ cells by ELISA following the manufacturer's procedure. Scanning and counting of IFNγ+ cells in the plates were accomplished using an automatic ELISPOT reader with Immunospot2 software (Cellular Technology Ltd). Mouse splenocytes were also untreated or treated with agents for 16 hrs in culture dishes and then stained with appropriate isotype control antibodies or FICT-labeled anti-CD3 monoclonal antibody (BD) plus PE-labeled monoclonal antibody (BD) for intracellular IFNγ following established procedures. The stained samples were washed 3 times, re-suspended in 200 μl of 1% para-formaldehyde solution and analyzed (20,000 cells/sample) using a BD FACS Caliburs cytometer and WinList software.
The splenocytes were cultured in RPMI 1640 medium supplemented with 10% FCS in the absence or presence of designated agents for 16 hrs in flat-bottom 96-well plates coated with a monoclonal antibody specific for mouse IFNγ (mouse IFNγ ELISPOT Kit, R & D System). The plates were then processed for in situ detection of IFNγ+ cells by ELISA following the manufacturer's procedure. Scanning and counting of IFNγ+ cells in the plates were accomplished using an automatic ELISPOT reader with Immunospot2 software (Cellular Technology Ltd).

recombinant SHP-1 = target: T1, recombinant SHP-1 (Homo sapiens, UniProt P29350); test: rapid in vitro SHP-1 PTPase assay (DIFMUP fluorescence substrate); format: biochemical; details: for inhibition of phosphatase activity of recombinant SHP-1: L5 and analogs, 1 μg/well, FIG. 12A
T1 construct: Recombinant protein of SHP-1 PTPase catalytic domain was described
T1 sequence (P29350 244-515 limits assumed): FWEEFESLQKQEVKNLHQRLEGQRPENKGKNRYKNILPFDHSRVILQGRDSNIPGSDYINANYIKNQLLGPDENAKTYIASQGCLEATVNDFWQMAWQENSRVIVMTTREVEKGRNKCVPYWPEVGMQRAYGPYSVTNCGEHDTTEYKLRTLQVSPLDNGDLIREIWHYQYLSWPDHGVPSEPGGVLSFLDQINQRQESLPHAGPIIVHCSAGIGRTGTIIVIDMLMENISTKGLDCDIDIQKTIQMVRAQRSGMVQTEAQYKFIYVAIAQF
Protocol: Recombinant protein of SHP-1 PTPase catalytic domain was described and stored in Tris buffer (25 mM Tris, pH7.5, 1 mM EDTA, 2 μM 2-ME, 25% glycerol) at −80° C. Fluorescence substrate DIFMUP (6,8-difluoro-4 methylumbelliferyl phosphate) was purchased (Molecular Probes). SSG was reported previously (21-23) and stored at 4° C. in darkness prior to use. Human and mouse IFNγ ELISPOT Kit (R & D System), CD4^+ Cell Intracellular IFNγ Detection Kit (BD Bioscience) and CD8^+ Cell Intracellular IFNγ Detection Kit (BD Bioscience) were purchased from commercial sources. Human Jurkat T cell line (26) and murine B16 melanoma cell line (ATCC) were maintained in […] culture medium supplemented with 10% fetal calf serum (FCS). Antibodies against pLck-pY394 (Cell Signaling), pLck-pY505 (Cell Signaling), pZap70 (pY319, BD Biosciences), pSlp76 (pY128, BD Biosciences) and pLat (pY226, BD Biosciences) were purchased from commercial sources.
A rapid SHP-1 PTPase assay was developed for screening the compounds in a commercial library of 34,000 drug-like small chemicals (Chembridge, Mass.). Briefly, compounds of the library (1 μg/well in […]) were placed in 96-well plates (Falcon, 353072) and mixed with recombinant SHP-1 protein (0.1 μg/well) in […] of HEPES buffer (50 mM HEPS, pH 7.5, 150 mM NaCl, 1 mM EDTA, 0.2 mM DTT and 0.1 mg/ml BSA). The plates were incubated at room temperature for 10 minutes prior to the addition of fluorescence substrate DIFMUP (40 μM stock in HEPES buffer, 10 μl/well) to initiate PTPase reaction. Upon completion of PTPase reaction at room temperature for 1 hr in darkness, fluorescence signal of individual wells were recorded using a Vector^2 Multilabel Counter (Vector, CA). They were compared to that of control SHP-1 PTPase reaction (˜10,000 units of fluorescence signal) in the absence of any compound (100%) for calculating relative SHP-1 inhibition induced by the compounds after subtracting the background signal (˜500 units of fluorescence signal) of the substrate.
To evaluate their SHP-1 inhibitory activity, the analogs (1 μg/well in 0.2 μl DMSO) were aliquot individually to 96-well plates (Falcon, 353072) and mixed with recombinant SHP-1 protein (0.1 μg/well) in 90 μl of HEPES buffer (50 mM HEPS, pH 7.5, 150 mM NaCl, 1 mM EDTA, 0.2 mM DTT and 0.1 mg/ml BSA). The plates were incubated at room temperature for 10 minutes prior to the addition of fluorescence substrate DIFMUP (40 μM stock in HEPES buffer, 10 μl/well) to initiate PTPase reaction. Upon completion of PTPase reaction at room temperature for 1 hr in darkness, fluorescence signal of individual wells were recorded using a Vector^2 Multilabel Counter (Vector, CA). […]

intracellular SHP-1 = target: T2, intracellular SHP-1 (Homo sapiens, UniProt P29350); test: tyrosine phosphorylation of SHP-1 substrates in Jurkat cells (SDS-PAGE/Western blotting, densitometry); format: cell-based
T2 construct: endogenous in cells; host or cells: Jurkat
Protocol: (§1) Jurkat cells in culture medium (3×10^6 cells/ml, 1 ml/tube) were treated with agents for designated times at room temperature. After brief centrifuging in a microfuge (4,000 rpm, 2 min), the cell pellet was lysed on ice for 30 min in 1001 of cold lysis buffer (1% NP40, 50 mM Tris, pH 7.4, 150 mM NaCl, 20 mM NaF, 0.2 mM Na3VO4 and 1 mM Na3MO4) containing a cocktail of proteinase inhibitors (Sigma, 1 tablet/10 ml). The lysates were cleared by centrifuging (14,000 rpm, 10 min) in a microfuge at 4° C. to remove insoluble parts, mixed with equal volume of 2×SDS-PAGE sample buffer, boiled for 5 min and analyzed (˜3×10^5 cells/well) by SDS-PAGE/Western blotting. Relative intensities of phosphotyrosine bands were quantified through densitometry analysis.
as §1, with “100 μl” for “1001”, “blotting as described previously (23, 24).” for “blotting.”
as §1, with “100 μl” for “1001”, “blotting as described previously (17, 18).” for “blotting.”

SHP-2 = target: T3, SHP-2 (Homo sapiens, UniProt Q06124); test: SHP-2 inhibition by SSG (applicant's earlier studies); details: recombinant and intracellular SHP-2
T3 sequence (Q06124 1-593): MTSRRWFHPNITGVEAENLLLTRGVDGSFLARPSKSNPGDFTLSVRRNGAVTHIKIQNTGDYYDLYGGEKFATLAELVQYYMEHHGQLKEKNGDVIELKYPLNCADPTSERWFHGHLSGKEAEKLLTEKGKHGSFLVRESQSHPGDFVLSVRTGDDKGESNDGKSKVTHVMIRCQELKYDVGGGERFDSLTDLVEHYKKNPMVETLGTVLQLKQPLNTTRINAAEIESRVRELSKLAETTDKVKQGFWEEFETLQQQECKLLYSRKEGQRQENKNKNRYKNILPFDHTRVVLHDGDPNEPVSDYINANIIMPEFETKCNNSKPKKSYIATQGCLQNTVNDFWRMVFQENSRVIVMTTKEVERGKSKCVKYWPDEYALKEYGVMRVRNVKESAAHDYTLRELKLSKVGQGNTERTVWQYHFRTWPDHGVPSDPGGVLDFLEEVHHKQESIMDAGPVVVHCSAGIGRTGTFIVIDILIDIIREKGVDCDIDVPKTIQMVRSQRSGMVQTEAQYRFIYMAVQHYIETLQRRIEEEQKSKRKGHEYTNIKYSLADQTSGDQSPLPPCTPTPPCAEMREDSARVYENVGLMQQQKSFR

T2 sequence (P29350 whole entry): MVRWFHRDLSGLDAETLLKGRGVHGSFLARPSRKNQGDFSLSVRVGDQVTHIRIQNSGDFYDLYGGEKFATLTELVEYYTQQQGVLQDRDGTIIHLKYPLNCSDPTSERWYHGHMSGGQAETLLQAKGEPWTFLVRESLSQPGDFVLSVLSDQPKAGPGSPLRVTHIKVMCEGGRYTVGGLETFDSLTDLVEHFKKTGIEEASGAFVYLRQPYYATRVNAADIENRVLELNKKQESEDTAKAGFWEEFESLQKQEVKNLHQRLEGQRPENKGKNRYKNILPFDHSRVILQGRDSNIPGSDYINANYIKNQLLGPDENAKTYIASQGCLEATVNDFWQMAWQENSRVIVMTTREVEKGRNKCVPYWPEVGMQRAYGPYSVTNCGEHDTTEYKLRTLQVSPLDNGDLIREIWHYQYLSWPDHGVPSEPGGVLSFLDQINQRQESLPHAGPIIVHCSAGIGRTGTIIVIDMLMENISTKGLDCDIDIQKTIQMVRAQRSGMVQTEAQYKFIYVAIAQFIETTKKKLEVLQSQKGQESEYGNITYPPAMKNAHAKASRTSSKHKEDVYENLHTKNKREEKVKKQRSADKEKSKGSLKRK
Protocol for B16 melanoma tumors: Tumor volume (n=5) was measured during the study period and calculated using the formula for a prolate spheroid. Student's t test was used for assessing the significance of tumor volume differences among differential treatment groups. Mouse viability (daily) and body weights (weekly) were also recorded during the study period. Major internal organs of the mice were inspected visually upon their termination at the end of the experiment.
To assess anti-tumor activity, C57BL/6J mice (˜8-week old, female, Taconic Farms, Germantown, N.Y.) were inoculated (s. c.) at the flanks with B16 melanoma cells (4×10^4 cells/site). […] Tumor volume (n=5) was measured during the study period and calculated using the formula for a prolate spheroid. Student's t test was used for assessing the significance of tumor volume differences among differential treatment groups. Mouse viability (daily) and body weights (weekly) were also recorded during the study period. Major internal organs of the mice were inspected visually upon their termination at the end of the experiment.

SMILES	B16 tumor growth inhibition versus control (B16 melanoma tumors; 1 mg/kg/daily, M-F/wk, oral, day 22) [%]	tolerance of treated tumor mice (behavior, gross anatomy) (B16 melanoma tumors; mouse, in vivo)	inhibition of B16 melanoma cells in culture (B16 melanoma cells)	increase of CD3+ IFNγ+ cells [1] [fold]	increase of CD3- IFNγ+ cells [1] [fold]	induction of IFNγ+ cells (mouse splenocytes) [fold]	inhibition of phosphatase activity of recombinant SHP-1 (recombinant SHP-1)	pLck-pY394 induction (intracellular SHP-1; 10 μg/ml, 10 min) [fold]	dose effective in inducing pLck-pY394 (lowest / only effective dose) (intracellular SHP-1; 10 min treatment) [μg/ml]	level active against intracellular SHP-1 (intracellular SHP-1; Jurkat T cells, molar equivalent) [µM]	pLck-pY394 induction (intracellular SHP-1; lower (1 μg/ml) or higher (100 μg/ml) doses)	level at which SHP-2 is inhibited (SHP-2) [µg/mL]	level at which SHP-1 is inhibited (recombinant SHP-1; recombinant and intracellular SHP-1) [µg/mL]
O=C1C=CC(=O)C(c2cccc(Cl)c2)=C1 [L5a2]	~75	no apparent abnormality	failed to inhibit	~4.5	1.3	~20	completely or almost completely inhibited	–	–	–	–	–	–
O=C1C=C(c2ccccc2)C(=O)c2ccccc21 [L5a3]	–	–	–	–	–	–	~80%	–	–	–	–	–	–
O.O.O.O.O.O.O.O.O.O=C([O-])[C@@H]1[O][Sb]2([O-])([O][Sb]34([OH])[O][C@H]([C@H](O)CO)[C@H]([O]3)[C@H](C(=O)[O-])[O]4)[O][C@H]([C@H](O)CO)[C@@H]1[O]2.[Na+].[Na+].[Na+] [SSG, Sodium Stibogluconate, reference compound]	–	–	–	–	–	–	–	~2	10	~14	failed	10	10

Source: patent US7939554B2, “Protein phosphatase inhibitors” (The Cleveland Clinic Foundation, priority 2006, dated 2011)
